Results taken from US20210300939A1, “Single Molecule Compounds Providing Multi-Target Inhibition of BTK and Other Proteins and Methods of Use Thereof” (SignalRx Pharmaceuticals, Inc., priority 2018, published 2021).

Legend:
[1] = target: T1, BRD4-2 (binding domain 2 of BRD4) (Homo sapiens, UniProt O60885); assay: BRD4 binding domain 2 inhibition (Reaction Biology Corp.); settings: 10-point curve; read-out: Target IC50 BRD4-2
T1 construct: purchased Reaction Biology Corp., Malvern, Pa; (contract assay)
Description: (§1) The BTK, PI3K, and/or bromodomain inhibitory activity of a compound of the invention can be determined by methods known to the skilled artisan, or by procuring relevant analysis by a commercial vendor offering such services. […] In vivo, PI3K inhibition can be determined from target tissue biopsies by standard tissue processing in which cells are disrupted and Western Blot analysis is performed to determine the presence or absence of pAKT (substrate of PI3K) relative to a control sample. PI3K inhibition assays and BTK inhibition assays are known in the art and can be procured commercially through vendors such as Reaction Biology (Malvern, Pa.). The activity of a compound of the invention as an inhibitor of a bromodomain-containing protein, such as a BET protein, including BRD2, BRD3, BRD4, and/or BRDT, or an isoform or mutant thereof, may be determined in vitro, in vivo, or in a cell line. In vitro assays include assays that determine inhibition of bromodomain-containing proteins. Alternatively, inhibitor binding may be determined by running a competition experiment where a provided compound is incubated with a bromodomain-containing protein, such as a BET protein bound to known ligands, labeled or unlabeled. In vitro bromodomain inhibition assays can be performed using Alpha Screen Technology (Perkin Elmer Life and Analytical Sciences, Shelton, Conn.). In vivo bromodomain inhibition can be determined indirectly by evaluating the amount of a protein whose gene transcription is influenced or controlled by the bromodomain protein, for example, MYCN protein transcription is controlled by BRD4 (J. E. Delmore et al., Cell 2011, 146, 904-917; A. Puissant, Cancer Discov. 2013, 3, 308-323).
(§2) Compounds of the invention were analyzed for their ability to inhibit target proteins in vitro. PI3K alpha, gamma, and delta inhibition activity was determined by Thermo Fisher Scientific-Biosciences Life Sciences Solutions, Madison, Wis. The bromodomain protein inhibition (binding domain 1 and 2 of BRD4) was determined at Reaction Biology Corp., Malvern, Pa. BTK inhibition was performed by Reaction Biology Corp., Malvern, Pa.
(§3) Additional information regarding the testing procedures is available at each company's website on the internet. The IC50 data was calculated from a 10-point curve by the vendor and is compiled in ranges in the Table 6 below.

PI3K γ = target: T2, PI3K γ (Homo sapiens, UniProt P48736); assay: PI3K gamma inhibition (Thermo Fisher Scientific); format: biochemical; settings: 10-point curve; read-out: Target IC50 PI3K γ
T2 construct: purchased Thermo Fisher Scientific-Biosciences Life Sciences Solutions, Madison, Wis; (contract assay)
T2 sequence (P48736 whole entry): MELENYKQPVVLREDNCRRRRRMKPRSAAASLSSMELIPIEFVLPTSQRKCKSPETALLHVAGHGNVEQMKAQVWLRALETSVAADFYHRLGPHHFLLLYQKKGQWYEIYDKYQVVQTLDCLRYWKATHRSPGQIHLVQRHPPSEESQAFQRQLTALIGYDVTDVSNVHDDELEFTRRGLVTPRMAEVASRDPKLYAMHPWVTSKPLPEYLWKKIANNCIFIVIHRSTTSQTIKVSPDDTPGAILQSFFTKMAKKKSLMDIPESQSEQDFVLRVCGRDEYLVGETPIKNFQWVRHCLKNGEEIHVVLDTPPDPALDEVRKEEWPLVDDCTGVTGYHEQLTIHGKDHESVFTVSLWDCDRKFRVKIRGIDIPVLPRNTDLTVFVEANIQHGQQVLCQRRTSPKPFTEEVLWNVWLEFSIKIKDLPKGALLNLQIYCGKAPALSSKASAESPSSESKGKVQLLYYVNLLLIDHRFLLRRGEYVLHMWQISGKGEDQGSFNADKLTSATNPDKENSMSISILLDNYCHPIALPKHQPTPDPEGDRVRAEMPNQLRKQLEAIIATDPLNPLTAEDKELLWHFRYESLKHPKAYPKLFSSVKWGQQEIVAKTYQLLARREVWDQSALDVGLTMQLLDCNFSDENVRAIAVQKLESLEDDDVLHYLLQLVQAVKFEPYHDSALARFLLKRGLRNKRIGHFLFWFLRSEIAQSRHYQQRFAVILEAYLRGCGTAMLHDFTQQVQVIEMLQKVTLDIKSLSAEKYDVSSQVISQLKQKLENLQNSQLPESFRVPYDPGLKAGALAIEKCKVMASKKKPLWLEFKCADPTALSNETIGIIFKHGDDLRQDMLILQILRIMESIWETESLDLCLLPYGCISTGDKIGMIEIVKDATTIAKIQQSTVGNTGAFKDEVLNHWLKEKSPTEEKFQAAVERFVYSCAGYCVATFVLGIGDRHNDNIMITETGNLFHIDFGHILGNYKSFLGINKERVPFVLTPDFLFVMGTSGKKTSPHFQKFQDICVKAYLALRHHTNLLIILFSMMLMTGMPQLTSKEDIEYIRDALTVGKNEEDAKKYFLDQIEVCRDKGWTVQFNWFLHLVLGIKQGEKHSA
Description: as §1, §2, §3

[2] = target: T3, BRD4-1 (binding domain 1 of BRD4) (Homo sapiens, UniProt O60885); assay: BRD4 binding domain 1 inhibition (Reaction Biology Corp.); settings: 10-point curve; read-out: Target IC50 BRD4-1
T3 construct: purchased Reaction Biology Corp., Malvern, Pa; (contract assay)
Description: as §1, §2, §3

PI3K α = target: T4, PI3K α (Homo sapiens, UniProt P42336); assay: PI3K alpha inhibition (Thermo Fisher Scientific); format: biochemical; settings: 10-point curve; read-out: Target IC50 PI3K α
T4 construct: purchased Thermo Fisher Scientific-Biosciences Life Sciences Solutions, Madison, Wis; (contract assay)
T4 sequence (P42336 whole entry): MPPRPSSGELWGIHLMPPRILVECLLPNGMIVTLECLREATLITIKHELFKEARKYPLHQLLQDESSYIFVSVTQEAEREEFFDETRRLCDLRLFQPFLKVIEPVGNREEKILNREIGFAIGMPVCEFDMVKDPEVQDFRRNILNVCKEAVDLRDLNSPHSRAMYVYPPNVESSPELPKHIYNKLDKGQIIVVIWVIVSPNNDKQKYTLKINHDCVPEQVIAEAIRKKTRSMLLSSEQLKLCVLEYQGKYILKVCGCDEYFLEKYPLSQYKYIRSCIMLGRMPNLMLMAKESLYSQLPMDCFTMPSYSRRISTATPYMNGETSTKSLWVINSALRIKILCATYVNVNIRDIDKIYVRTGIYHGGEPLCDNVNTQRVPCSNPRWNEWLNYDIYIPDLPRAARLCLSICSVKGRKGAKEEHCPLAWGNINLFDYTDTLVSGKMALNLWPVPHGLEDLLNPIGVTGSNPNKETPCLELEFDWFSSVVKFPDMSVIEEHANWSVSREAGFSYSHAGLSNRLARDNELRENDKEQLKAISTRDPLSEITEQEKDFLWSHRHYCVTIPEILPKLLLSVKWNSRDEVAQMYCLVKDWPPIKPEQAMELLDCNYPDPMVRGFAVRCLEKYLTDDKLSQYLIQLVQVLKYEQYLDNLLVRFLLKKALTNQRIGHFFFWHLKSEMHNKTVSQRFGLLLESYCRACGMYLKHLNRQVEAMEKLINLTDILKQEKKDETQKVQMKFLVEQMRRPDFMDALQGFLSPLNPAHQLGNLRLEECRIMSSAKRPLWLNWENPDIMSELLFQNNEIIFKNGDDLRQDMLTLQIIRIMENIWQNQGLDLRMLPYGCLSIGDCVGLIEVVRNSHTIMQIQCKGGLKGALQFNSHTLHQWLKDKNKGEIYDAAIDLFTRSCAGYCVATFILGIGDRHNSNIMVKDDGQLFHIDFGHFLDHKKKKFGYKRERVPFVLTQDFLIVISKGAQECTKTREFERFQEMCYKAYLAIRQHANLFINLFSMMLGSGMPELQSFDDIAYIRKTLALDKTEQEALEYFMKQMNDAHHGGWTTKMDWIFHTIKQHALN
T4 sequence (P27986 whole entry partner): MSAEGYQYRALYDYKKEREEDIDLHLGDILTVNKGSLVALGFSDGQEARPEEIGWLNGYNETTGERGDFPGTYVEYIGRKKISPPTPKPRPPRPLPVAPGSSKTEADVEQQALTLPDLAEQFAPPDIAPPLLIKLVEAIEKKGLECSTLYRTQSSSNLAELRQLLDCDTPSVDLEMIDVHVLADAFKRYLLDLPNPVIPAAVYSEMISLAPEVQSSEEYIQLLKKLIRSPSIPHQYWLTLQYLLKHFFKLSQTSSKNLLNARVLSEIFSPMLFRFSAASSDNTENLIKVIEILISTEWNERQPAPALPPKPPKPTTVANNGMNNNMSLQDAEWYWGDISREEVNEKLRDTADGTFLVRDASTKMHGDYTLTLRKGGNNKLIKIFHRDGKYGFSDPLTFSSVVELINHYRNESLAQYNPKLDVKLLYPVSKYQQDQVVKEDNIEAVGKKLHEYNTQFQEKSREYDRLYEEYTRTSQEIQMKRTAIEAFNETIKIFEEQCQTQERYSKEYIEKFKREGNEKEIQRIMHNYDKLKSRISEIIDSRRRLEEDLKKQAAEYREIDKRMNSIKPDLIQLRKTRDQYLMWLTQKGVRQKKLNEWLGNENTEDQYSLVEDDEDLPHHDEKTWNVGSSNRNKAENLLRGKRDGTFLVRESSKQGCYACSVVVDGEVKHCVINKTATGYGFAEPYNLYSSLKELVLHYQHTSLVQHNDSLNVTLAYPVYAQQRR
Description: as §1, §2, §3

PI3K δ = target: T5, PI3K δ (Homo sapiens, UniProt O00329); assay: PI3K delta inhibition (Thermo Fisher Scientific); format: biochemical; settings: 10-point curve; read-out: Target IC50 PI3K δ
T5 construct: purchased Thermo Fisher Scientific-Biosciences Life Sciences Solutions, Madison, Wis; (contract assay)
T5 sequence (O00329 whole entry): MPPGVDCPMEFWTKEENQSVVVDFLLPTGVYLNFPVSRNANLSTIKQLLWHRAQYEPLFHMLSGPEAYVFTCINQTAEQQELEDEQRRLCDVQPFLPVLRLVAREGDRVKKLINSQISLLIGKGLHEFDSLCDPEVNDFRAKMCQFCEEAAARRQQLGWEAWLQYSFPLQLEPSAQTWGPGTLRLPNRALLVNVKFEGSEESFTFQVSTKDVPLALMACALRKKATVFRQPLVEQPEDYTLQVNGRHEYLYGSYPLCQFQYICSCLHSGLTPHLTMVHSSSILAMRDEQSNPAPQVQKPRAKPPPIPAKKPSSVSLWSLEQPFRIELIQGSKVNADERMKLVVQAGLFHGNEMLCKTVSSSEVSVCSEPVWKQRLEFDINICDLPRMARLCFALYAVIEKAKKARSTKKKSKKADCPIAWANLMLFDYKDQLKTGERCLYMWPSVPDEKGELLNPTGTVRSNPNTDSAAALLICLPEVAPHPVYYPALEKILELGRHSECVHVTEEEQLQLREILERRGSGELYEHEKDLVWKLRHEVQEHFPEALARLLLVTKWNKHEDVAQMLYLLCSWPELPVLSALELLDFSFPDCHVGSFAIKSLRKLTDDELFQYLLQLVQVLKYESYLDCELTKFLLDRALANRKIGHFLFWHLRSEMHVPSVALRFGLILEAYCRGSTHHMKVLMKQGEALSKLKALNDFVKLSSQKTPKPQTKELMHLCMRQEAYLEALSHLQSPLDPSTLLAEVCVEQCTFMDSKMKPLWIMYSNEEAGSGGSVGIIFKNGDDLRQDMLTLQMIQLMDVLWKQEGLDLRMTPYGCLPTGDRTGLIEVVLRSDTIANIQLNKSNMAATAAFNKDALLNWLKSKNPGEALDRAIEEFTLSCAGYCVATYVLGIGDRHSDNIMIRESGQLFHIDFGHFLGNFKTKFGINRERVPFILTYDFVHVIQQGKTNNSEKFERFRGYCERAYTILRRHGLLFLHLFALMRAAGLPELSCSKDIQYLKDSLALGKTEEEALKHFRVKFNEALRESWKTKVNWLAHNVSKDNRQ
T5 sequence (P27986 whole entry partner): as the sequence (P27986 whole entry partner) above
Description: as §1, §2, §3

BTK (C481S) = target: T6, BTK (C481S) (Homo sapiens, UniProt Q06187, C481S); assay: BTK cysteine mutant C481S inhibition (Reaction Biology Corp.); format: biochemical; settings: for IC50: 10-point curve, read-out: Target IC50 BTK (C481S); for Ratio C481S/WT: ratio of the BTK IC50 values, C481S over wild-type
T6 construct: purchased Reaction Biology Corp., Malvern, Pa; (contract assay)
T6 sequence (Q06187 whole entry C481S): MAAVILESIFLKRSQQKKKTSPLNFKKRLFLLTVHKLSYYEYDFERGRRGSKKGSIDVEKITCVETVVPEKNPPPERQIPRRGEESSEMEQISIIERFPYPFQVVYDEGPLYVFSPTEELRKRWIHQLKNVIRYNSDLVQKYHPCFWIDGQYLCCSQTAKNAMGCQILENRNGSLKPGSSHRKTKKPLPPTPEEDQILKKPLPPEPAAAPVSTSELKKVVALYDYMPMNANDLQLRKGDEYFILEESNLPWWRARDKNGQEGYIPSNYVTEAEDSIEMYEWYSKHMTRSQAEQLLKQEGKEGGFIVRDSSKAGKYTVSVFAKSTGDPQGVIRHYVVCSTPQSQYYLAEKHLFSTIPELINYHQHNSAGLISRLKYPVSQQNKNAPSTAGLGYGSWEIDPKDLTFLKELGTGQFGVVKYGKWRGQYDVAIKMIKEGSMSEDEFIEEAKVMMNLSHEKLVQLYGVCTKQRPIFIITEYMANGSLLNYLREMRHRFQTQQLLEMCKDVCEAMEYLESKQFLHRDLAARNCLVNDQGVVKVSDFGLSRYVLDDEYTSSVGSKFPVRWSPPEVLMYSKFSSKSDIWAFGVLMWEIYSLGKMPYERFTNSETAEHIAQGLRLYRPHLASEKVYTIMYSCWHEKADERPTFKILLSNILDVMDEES
Description: as §2, §3

BTK (WT) = target: T7, BTK (WT) (Homo sapiens, UniProt Q06187); assay: native BTK inhibition (Reaction Biology Corp.); format: biochemical; settings: 10-point curve; read-out: Target IC50 BTK (WT)
T7 construct: purchased Reaction Biology Corp., Malvern, Pa; (contract assay)
T7 sequence (Q06187 whole entry): as the sequence (Q06187 whole entry C481S) above, with S481C counted along it
Description: as §2, §3

Mino cells [3] = assay: Percentage cells in apoptosis, Mino; format: cell-based, human; settings: 24-hour
Source text: (§4) Additionally apoptosis data was obtained in both JeKo and Mino cells for compound 7.

JeKo-1 cells [4] = assay: Percentage cells in apoptosis, JeKo-1; format: cell-based, human
Source text: as §4

JeKo-1 cells [5] = assay: Cell viability (Celltiter-Glo), JeKo-1; format: cell-based; settings: Homo sapiens, 48 hours
Description: (§5) The results of this experiment are shown in FIGS. 1A-1C, and in Table 7 below. Human mantle cell lymphoma cell lines were grown in 96 well plates with 5000 cells per well in RPMI 1640 media supplemented with 10% fetal bovine serum. Cells were treated for 48 hours with a concentration range of each compound from 50 nM to 50 uM. Cell viability a measure of viable cell numbers was determined using a Celltiter-Glo^R reagent for each concentration in order to construct an IC50 curve for each compound in each cell line.

Granta519 cells = assay: Cell viability (Celltiter-Glo), Granta519; format: cell-based; settings: Homo sapiens, Granta-519, 48 hours
Description: as §5

Mino cells [6] = assay: Cell viability (Celltiter-Glo), Mino; format: cell-based; settings: Homo sapiens, 48 hours
Description: as §5

| Compound | IC50 [1] | IC50 (PI3K γ) | IC50 [2] | IC50 (PI3K α) | IC50 (PI3K δ) | IC50 (BTK (C481S)) | Ratio C481S/WT (BTK (C481S)) | IC50 (BTK (WT)) | Percentage cells in apoptosis (Mino cells [3]; Early) | Percentage cells in apoptosis (Mino cells [3]; Late) | Percentage cells in apoptosis (Mino cells [3]; Total) | Percentage cells in apoptosis (JeKo-1 cells [4]; JeKo-1, 24-hour, Early) | Percentage cells in apoptosis (JeKo-1 cells [4]; JeKo-1, 24-hour, Late) | Percentage cells in apoptosis (JeKo-1 cells [4]; JeKo-1, 24-hour, Total) | Percentage cells in apoptosis (JeKo-1 cells [4]; JeKo-1, 48-hour, Early) | Percentage cells in apoptosis (JeKo-1 cells [4]; JeKo-1, 48-hour, Late) | Percentage cells in apoptosis (JeKo-1 cells [4]; JeKo-1, 48-hour, Total) | IC50 (JeKo-1 cells [5]) | IC50 (Granta519 cells) | IC50 (Mino cells [6]) |
| --- | --- | --- | --- | --- | --- | --- | --- | --- | --- | --- | --- | --- | --- | --- | --- | --- | --- | --- | --- | --- |
| CCCCC/C=C/C(=O)Nc1cccc(-c2csc3c(=O)cc(N4CCOCC4)oc23)c1 [Compound 10, (E)-1-[m-(5-Morpholino-7-oxo-4-oxa-1-thia-3-indenyl)phenylamino]-2-octen-1-one] | 10000 to 30000 nM | 10000 to 30000 nM | 1000 to 10000 nM | 1000 to 10000 nM | 1000 to 10000 nM | – | – | – | – | – | – | – | – | – | – | – | – | – | – | – |
| N#C/C(=C\C1CC1)C(=O)Nc1cccc(-c2csc3c(=O)cc(N4CCOCC4)oc23)c1 [Compound 11, (E)-3-Cyclopropyl-2-{[m-(5-morpholino-7-oxo-4-oxa-1-thia-3-indenyl)phenylamino]carbonyl}acrylonitrile] | < 1000 nM | 1000 to 10000 nM | 1000 to 10000 nM | < 1000 nM | < 1000 nM | 10000 to 30000 nM | 1.3 | 10000 to 30000 nM | – | – | – | – | – | – | – | – | – | – | – | – |
| CC#CC(=O)Nc1cccc(-c2csc3c(=O)cc(N4CCOCC4)oc23)c1 [Compound 12, 1-[m-(5-Morpholino-7-oxo-4-oxa-1-thia-3-indenyl)phenylamino]-2-butyn-1-one] | < 1000 nM | < 1000 nM | < 1000 nM | < 1000 nM | < 1000 nM | 10000 to 30000 nM | 15.8 | 1000 to 10000 nM | – | – | – | – | – | – | – | – | – | – | – | – |
| C=CS(=O)(=O)N1CCOc2ccc(-c3csc4c(=O)cc(N5CCOCC5)oc34)cc21 [Compound 21, 5-Morpholino-3-[4-(vinylsulfonyl)-1-oxa-4-aza-3,4-dihydro-2H-naphth-6-yl]-4-oxa-1-thia-7-indenone] | < 1000 nM | < 1000 nM | < 1000 nM | < 1000 nM | < 1000 nM | < 1000 nM | 1402 | < 1000 nM | – | – | – | – | – | – | – | – | – | – | – | – |
| C=CS(=O)(=O)Nc1cccc(-c2csc3c(=O)cc(N4CCOCC4)oc23)c1 [II-18, 5-morpholino-3-[m-(vinylsulfonylamino)phenyl]-4-oxa-1-thia-7-indenone] | < 1000 nM | < 1000 nM | < 1000 nM | < 1000 nM | < 1000 nM | < 1000 nM | >20K | < 1000 nM | – | – | – | – | – | – | – | – | – | – | – | – |
| C=CC(=O)N1CCC[C@@H](n2nc(-c3ccc(Oc4ccccc4)cc3)c3c(N)ncnc32)C1 [Ibrutinib] | – | – | – | – | – | – | – | – | ++ (between 5% and 10%) | + (less than 5%) | +++ (between 10% and 30%) | + (less than 5%) | + (less than 5%) | + (less than 5%) | + (less than 5%) | + (less than 5%) | ++ (between 5% and 10%) | > 50000 nM | 10000 to 30000 nM | 1000 to 10000 nM |
| CN[C@@H]1C[C@H]2O[C@@](C)([C@@H]1OC)n1c3ccccc3c3c4c(c5c6ccccc6n2c5c31)C(=O)NC4 [Staurosporine] | – | – | – | – | – | – | – | – | ++++ (between 30% and 50%) | ++++ (between 30% and 50%) | +++++ (more than 50%) | ++ (between 5% and 10%) | + (less than 5%) | +++ (between 10% and 30%) | +++ (between 10% and 30%) | +++ (between 10% and 30%) | ++++ (between 30% and 50%) | – | – | – |
